Experimental data as given in PubChem BioAssay (NCI).
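Test compounds were applied to cells in 96-well plates for 48 hours at 5 doses. At the TGI there is no net growth.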

How the values were obtained:
Test in all cases: DTP human tumour cell line panel, 48 h
786-0 renal = tested on: 786-0 renal
A549 NSCLC = tested on: A549 NSCLC
ACHN renal = tested on: ACHN renal
CAKI-1 renal = tested on: CAKI-1 renal
CCRF-CEM leukemia = tested on: CCRF-CEM leukemia
COLO 205 colon = tested on: COLO 205 colon
DLD-1 colon = tested on: DLD-1 colon
DMS 114 small cell lung = tested on: DMS 114 small cell lung
EKVX NSCLC = tested on: EKVX NSCLC
HCT-116 colon = tested on: HCT-116 colon
HCT-15 colon = tested on: HCT-15 colon
HL-60(TB) leukemia = tested on: HL-60(TB) leukemia
HOP-62 NSCLC = tested on: HOP-62 NSCLC
HOP-92 NSCLC = tested on: HOP-92 NSCLC
HT29 colon = tested on: HT29 colon
IGROV1 ovarian = tested on: IGROV1 ovarian
K-562 leukemia = tested on: K-562 leukemia
KM12 colon = tested on: KM12 colon
LOX IMVI melanoma = tested on: LOX IMVI melanoma
LXFL 529 NSCLC = tested on: LXFL 529 NSCLC
M14 melanoma = tested on: M14 melanoma
M19-MEL melanoma = tested on: M19-MEL melanoma
MALME-3M melanoma = tested on: MALME-3M melanoma
MOLT-4 leukemia = tested on: MOLT-4 leukemia
NCI-H226 lung = tested on: NCI-H226 lung
NCI-H23 lung = tested on: NCI-H23 lung
NCI-H460 lung = tested on: NCI-H460 lung
NCI-H522 lung = tested on: NCI-H522 lung
OVCAR-3 ovarian = tested on: OVCAR-3 ovarian
OVCAR-4 ovarian = tested on: OVCAR-4 ovarian
OVCAR-5 ovarian = tested on: OVCAR-5 ovarian
OVCAR-8 ovarian = tested on: OVCAR-8 ovarian
RPMI-8226 leukemia = tested on: RPMI-8226 leukemia
RXF 393 renal = tested on: RXF 393 renal
SF-268 CNS = tested on: SF-268 CNS
SF-295 CNS = tested on: SF-295 CNS
SF-539 CNS = tested on: SF-539 CNS
SK-MEL-28 melanoma = tested on: SK-MEL-28 melanoma
SK-MEL-5 melanoma = tested on: SK-MEL-5 melanoma
SK-OV-3 ovarian = tested on: SK-OV-3 ovarian
SN12C renal = tested on: SN12C renal
SNB-75 CNS = tested on: SNB-75 CNS
SNB-78 CNS = tested on: SNB-78 CNS
SR leukemia = tested on: SR leukemia
SW-620 colon = tested on: SW-620 colon
TK-10 renal = tested on: TK-10 renal
U251 CNS = tested on: U251 CNS
UACC-62 melanoma = tested on: UACC-62 melanoma
A498 renal = tested on: A498 renal
DMS 273 small cell lung = tested on: DMS 273 small cell lung
HOP-18 NSCLC = tested on: HOP-18 NSCLC
KM20L2 colon = tested on: KM20L2 colon
SNB-19 CNS = tested on: SNB-19 CNS
UACC-257 melanoma = tested on: UACC-257 melanoma
HCC-2998 colon = tested on: HCC-2998 colon
SK-MEL-2 melanoma = tested on: SK-MEL-2 melanoma
UO-31 renal = tested on: UO-31 renal
XF 498 CNS = tested on: XF 498 CNS

Measured: TGI

O=C(NC(=O)c1cn(CCNCCO)c(=O)[nH]c1=O)OCc1ccccc1
not listed: A498 renal | DMS 273 small cell lung | HOP-18 NSCLC | KM20L2 colon | SNB-19 CNS | UACC-257 melanoma | HCC-2998 colon | SK-MEL-2 melanoma | UO-31 renal | XF 498 CNS
> 100 µM: all other assays above

COC1[C@@H](OC(C)=O)[C@@H](NC(=O)C(Cl)(Cl)Cl)C(I)[C@@H](N2C(=O)c3ccccc3C2=O)[C@H]1OC (stereo partly drawn)
not listed: CAKI-1 renal | M19-MEL melanoma | MALME-3M melanoma | OVCAR-3 ovarian | SK-OV-3 ovarian | TK-10 renal | HCC-2998 colon | SK-MEL-2 melanoma | UO-31 renal | XF 498 CNS
> 100 µM: all other assays above

CCOC(=O)NC(=O)c1cn(CCOC(=O)NCCCCCCNC(=O)OCCn2cc(C(=O)NC(=O)OCC)c(=O)[nH]c2=O)c(=O)[nH]c1=O
not listed: HOP-92 NSCLC | NCI-H23 lung | OVCAR-5 ovarian | SF-539 CNS | SR leukemia | TK-10 renal | XF 498 CNS
> 100 µM: all other assays above

Cc1ccc(Cn2c(C)nc3c2C(=O)c2ccccc2C3=O)cc1
36.9 µM: SF-268 CNS
42.1 µM: HOP-62 NSCLC
16.3 µM: HCT-116 colon
20.5 µM: NCI-H23 lung
19.5 µM: SK-MEL-5 melanoma
18.1 µM: NCI-H522 lung
34.3 µM: MALME-3M melanoma
3.13 µM: NCI-H460 lung
36.6 µM: OVCAR-3 ovarian
38.9 µM: ACHN renal
19.7 µM: 786-0 renal
45.6 µM: SK-MEL-2 melanoma | SK-OV-3 ovarian
60 µM: HCT-15 colon
63.4 µM: OVCAR-4 ovarian
18.7 µM: SF-539 CNS
49.8 µM: SNB-19 CNS
19 µM: DMS 273 small cell lung
60.8 µM: UACC-257 melanoma
58 µM: LXFL 529 NSCLC
22.8 µM: U251 CNS
28 µM: OVCAR-8 ovarian
47.6 µM: XF 498 CNS
6.18 µM: LOX IMVI melanoma
41 µM: HL-60(TB) leukemia
16.1 µM: UACC-62 melanoma
42.9 µM: SF-295 CNS
33.7 µM: NCI-H226 lung
28.7 µM: RXF 393 renal
36.3 µM: SNB-75 CNS
21.1 µM: M19-MEL melanoma
80.8 µM: TK-10 renal
34.9 µM: A549 NSCLC
not listed: CAKI-1 renal | DMS 114 small cell lung | HOP-92 NSCLC | OVCAR-5 ovarian | RPMI-8226 leukemia | A498 renal | HOP-18 NSCLC
> 100 µM: all other assays above
